Experimental data taken from patent US10617656B2, “Methods of increasing the cytotoxicity of chemotherapeutic agents with multisubstrate inhibitors of histone, protein-Lys, polyamine acetylation, and polyamine metabolism” (Vanderbilt University, priority 2010, dated 2020).

Tests used:
H358 lung cancer cells [1] = assay type: cell-based; conditions: 3 days
Description: (§1) Control cells were left untreated. […] Control cells were left untreated.
Cells were given fresh inhibitor on the first, second, and third days of treatment and viability was measured on the 4th day (i.e. 3 days post start of treatment). […]
(A) Structure of Spd-3a. (B) Western analysis of histone H3K9-acetylation and total histone H3, measured in control, untreated H358 lung cancer cells “C” or in H358 cells incubated 12 hours in the presence of 50 μM Spd-2a or Spd-3a. Each lane represents 60 μg cellular protein. (C) [3H]-thymidine incorporation (counts per minute) into DNA of H358 cells during a 6 hour pulse beginning at 42 hours post-start of treatment. Treatments were as follows (bars 1-6 left to right): (1) control: no treatment; (2) CPT alone: 5 nM 18 hours; (3) 3a alone: 50 μM; (4-6) 3a+CPT: CPT (5 nm, 18 hours)+3a at indicated dose. After 18 hours, CPT was removed and medium was replaced with fresh medium containing Spd-3a at the indicated dose. Each bar represents the average of triplicates. (D) 3-day 96-well viability assay of H358 cells grown in the presence of increasing amounts of Spd-2a or Spd-3a, with or without CPT (5 nM 18 hours). […] Each data point represents the average of three wells.
Date of exp: Jul. […] Date of exp: Sep.
Cells were plated in 96-well plates at 2000 cells per well and treated with the indicated doses of spd-3a. Cell viability was measured by the MTS assay 3 days later.
DLD-1 cells or H358 cells were plated in 96-well plates at 2000 cells per well and treated with the indicated doses of (A) spm-3 or (B) spm-2. (C) Cell viability was measured by the MTS assay 3 days later. Similar experiment using GT41 fibroblasts with spm2 or spm 3. Each assay point represents an average of duplicates. […]

H358 lung cancer cells [2] = assay: [3H]-thymidine incorporation (DNA synthesis) assay in H358 cells; assay type: cell-based
Description: (A) Structures of 1a, and the acetylated side chain of a lysine residue within the polypeptide chain of a protein targeted by the acetylating enzyme (R1 and R2 are the main chain elements on both sides of the lysyl residue). (B) [^3H]-thymidine incorporation into DNA of H358 cells pulsed for 6 hrs at three different time points after the addition of increasing concentrations of 1a, i.e., at 6-12 hrs (12 hr curve), at 18-24 hours (24 hr curve), or at 42-48 hrs (48 hr curve). Incorporation is represented as a percentage relative to control (untreated) cells. (C) Cell cycle analysis of propidium iodide-stained cells harvested at various times after addition of 50 μM 1a. % of cells in G1, S, and G2 represents the average of two independent profiles. (D) Western analysis of histone H3 lysine 9 acetylation, histone H3 lysine 56 acetylation, histone H3 lysine 9 methylation, and total histone H3, before “c” or at the indicated times after addition of 50 μM 1a. Each lane represents 60 μg cellular protein.
as §1
Cells were either labeled immediately before treatment (starting DNA synthesis rate), or subjected to the indicated treatments and then pulsed on successive days until day 4. DNA synthesis is represented as the percent of starting DNA synthesis rate. Viability was determined for each treatment condition 24 hours post-start of treatment by the trypan blue exclusion assay, with percentages of viable cells indicated to the right of the graph.
H358 cells (2,000/well) in 96-well plates were treated with 1, 10 or 50 μM of spd-1a, spd-2a, spd-3a, spm3, or spm2 for 12 hours. Triplicate wells of cells were pulsed 6 hours with 0.5 μCi [^3H]-thymidine (NEN, Boston Mass.) post-start of drug treatment, and harvested onto filter paper using a Brandel Harvester and subjected to scintillation counting. Untreated cells were pulsed from 0-6 hrs to establish the initial rate of incorporation.
Cells were plated in 96-well plates (2000 cells per well to insure conditions for exponential growth for untreated cells over the time course of the experiment) and exposed to the following treatments: 1a (50 μM); camptothecin (Sigma, St Louis, Mo. 5 nM, 18 hours); cisplatin (Platinol, obtained through local pharmacies, 2 μM, 1 hour 15 minutes), 5-fluorouracil (5FU, Adrucil™, obtained through local pharmacies, 2 μM, 1 hour 15 minutes), Taxotere (provided by the late Dr. Pierre Potier, 5 nM, 18 hours). UVC treatment (40 J/m^2) using a Stratalinker™, Stratagene, La Jolla, Calif.) was carried using medium lacking phenol red. At 0-6 hr, 18-24 hr (day 1), 42-48 hr […], 66-72 hr (day 3), and 90-96 hr (day 4) post-start of treatment, triplicate wells were incubated with 0.5 μCi [^3H]-thymidine (NEN, Boston Mass.), harvested onto filter paper, and subjected to scintillation counting. Trypan blue exclusion assays for cell membrane integrity were carried out as known in the art.
The present inventors used 96-well viability assays as described in Saadatmandi et al (Cancer Gene Therapy (2002) 9:[…]) to examine the effect of 1a on DNA synthesis in H358 cells, as well as the combined effects of 1a and chemotherapeutic agents. H358 cells were plated in 96-well plates at 3000 cells per well. […]

Row | Structure (SMILES) | suppression of cancer cell growth and viability (H358 lung cancer cells [1]; spm single agent) | inhibition of DNA synthesis (H358 lung cancer cells [2]; 1, 10 or 50 μM, 12 hours) | suppression of 3 day cell viability (H358 lung cancer cells [1]; human) | sensitization to 5-FU (H358 lung cancer cells [2]; 50 μM 1a + 5FU 2 μM)
1 | CC(=O)NCCSCC(=O)NCCCNCCCCNCCCN [spm-3] | effective as single agents | inhibit DNA synthesis |  | 
2 | CC(C)(COP(=O)(O)OP(=O)(O)OC[C@H]1O[C@@H](n2cnc3c(N)ncnc32)[C@H](O)[C@@H]1OP(=O)(O)O)[C@@H](O)C(=O)NCCC(=O)NCCSCC(=O)NCCCNCCCCN [1a, spermidine[N1]-CoA] |  |  | 60-70% | sensitized
